Experiments:
HTB-157 cells = assay: Viability of HTB-157 fetal (normal) fibroblasts; assay type: cell-based, human
Description: (§1) To quantify cell death, around the time when significant and characteristic morphological changes took place, cells were pulse-labeled for 10 minutes with [^3H]thymidine to measure DNA activity as described elsewhere [Tomono, M. and Kiss, Z. (1995), “Ethanol enhances the stimulatory effects of insulin and insulin-like growth factor-I on DNA synthesis in NIH 3T3 fibroblasts,” Biochem. Biophys. Res. Commun. 208, 63-67]. Also, cells were collected as suspensions using trypsin, an established method in cell biology, followed by re-plating of cells in fresh tissue culture medium. If no viable cells were obtained after one week in culture, it meant that the cells at the time of re-plating were dead. Survival values obtained with untreated cells were considered 100%. For the determination of relative number of viable cells after treatments, in most cases the MTT assay was used. This calorimetric assay is based on the ability of living cells, but not dead cells, to reduce 3-(4,5-dimethyl thiazol-2-yl)-2,5-diphenyltetrazolium bromide [Carmichael, J, De Graff, W. G., Gazdar, A. F., Minna, J. D. and Mitchell, J. B. (1987), “Evaluation of tetrazolium-based semi-automated calorimetric assay: Assessment of chemosensitivity testing,” Cancer Res. 47, 936-942]. For this assay, cells were plated in 96-well plates, and the MTT assay was performed both in untreated and treated cell cultures. The MTT assay also was performed at the start of treatments to allow assessment of proliferation rates in the control and treated cell cultures.
(§2) NIH3T3, T47D, A-431, HT-29, and MEL-28 cells were cultured as indicated earlier. CaOV-3 human ovarian cancer cells were cultured in DMEM containing 10% FBS. ZR-75-1 human estrogen receptor-positive breast cancer cells were maintained in RPMI 1640 medium supplemented with 10% FBS. HTB-157 human fetal fibroblasts, MEL-24 human malignant melanoma cells, Hep G2 human hepatoblastoma cells, and CaCO-2 human colon adenocarcinoma cells were maintained in Eagles's MEM containing 10% FBS. MB-231 human estrogen receptor-negative breast cancer cells were maintained in Leibovitz's L-15 medium supplemented with 10% FBS. Cells were seeded into 96-well plates and treated at ˜70-90% confluency. Two hours prior to treatments the medium was changed for fresh 10% serum medium, and then the cells were incubated for 10 days in the absence (□) or presence of 50 μM CCDTHT ? or 100 μM CCDTHT (▪). The medium was changed and the cells were re-treated on days 3 and 6. The MTT assay was used to determine cell viability on day 10. The data, shown in FIG. 6, are the mean±std. dev. of 8 incubations in one experiment. (The experiment was repeated twice with similar results).
(§3) HTB-157, MEL-28, CaOV-3, T47D, and A-431 cells were maintained as indicated earlier. The 3A-SubE post crisis placenta cells (capable of unlimited proliferation) were maintained in Eagle's MEM containing 10% FBS. Cells were seeded into 96-well plates and treated at ˜70-90% confluency. Two hours before treatments the medium was changed for fresh 10% serum medium, and then cells were incubated for 48 hours in the absence (□) or presence of 50 μM CCDTHT ? or 100 μM CCDTHT (▪). Half of the cultures was analyzed by the MTT assay at this point, and the other half of the cultures was incubated for an additional 96 hours in fresh 10% serum-containing medium without CCDTHT followed by the MTT assay. The data, shown in FIG. 8, are the mean±std. dev. of 8 incubations in one experiment. (Similar results were obtained in another experiment).
(§4) HaCaT keratinocytes, frequently used immortalized model cells for studying psoriatic keratinocytes, and HTB-157 human fetus lung fibroblasts were cultured in 10% FBS-containing Dulbecco's modified Eagle's medium (DMEM). […]

[1] = Viability of HTB-157 fetal (normal) fibroblasts; assay type: cell-based, human; settings: human, MTT
Description: as §1, §2, §3, §4

3A-SubE cells = assay: Viability of 3A-SubE post crisis placenta cells (MTT assay); assay type: cell-based; settings: 50 μM 48 hours, then 96 hours without CCDTHT
[2] = Body weight of animals in the MXT tumor model; assay type: in vivo, mouse; settings: Example 31, CisPt 2 mg/kg i.p. and/or CCDTHT 4.6 mg/kg s.c.
Description: The mouse mammary MXT tumor was developed as described above. […] CCDTHT and CisPt were administered subcutaneously and intraperitoneally, respectively, once daily for 10 days, including a 2-day rest period after 5 days of treatment (i.e., the last treatment was on day 19). Each group consisted of 7 animals, and the mean values±std. dev. for tumor volumes and body weight are shown in TABLE 4 and TABLE 5, respectively.
The mouse mammary MXT tumor model was developed and treated as described above. […] CisPt and PALP were administered intraperitoneally and subcutaneously, respectively, seven times on every second day (i.e., treatments were terminated on day 21). Each group included 7 animals; the mean values±std. dev. for tumor volumes and body weight are shown in TABLE 6 and TABLE 7, respectively.
The mouse mammary MXT tumor model was developed and treated as described above. […] In each group 7 mice were included. The mean values±std. dev. for tumor volumes and body weights are shown in TABLE 9 and TABLE 10, respectively.

[3] = Viability of MRC-5 normal lung fibroblasts (MTT assay); assay type: cell-based; settings: human, MRC-5 normal lung fibroblasts; 30,000 cells per well (80-90% confluent), 72 hours, MTT; read-out: IC50 values, Cytotoxic, MRC-5
Description: as §1
The MRC-5 cell line is derived from normal lung tissue of a […] fetus. MRC-5 cells were maintained and treated in Eagles Medium with Hanks' BSS containing 10% fetal bovine serum. The T47D cells were maintained and treated in RPMI 1640 medium supplemented with 0.2 IU bovine insulin and 10% fetal bovine serum. The CaOV-3 human ovarian cancer cells were cultured in Dulbecco's modified Eagle's medium containing 10% fetal bovine serum. The cells were seeded in 96-well plates either at 10,000 cells per well or 30,000 cells per well to examine the antiproliferative and cytotoxic effects of various CC compounds, respectively. The cells were incubated for 24 hours, then the medium was changed followed by the treatments of cultures 2 hours after the medium change. At this point, cell cultures seeded at 10,000 cells per well and 30,000 cells per well were 25-35% and 80-90% confluent, respectively. Incubations were continued for 72 hours followed by the MTT assay. The data, shown in TABLE 2, indicate the inhibitory concentrations of CC compounds (IC50) required for 50% decrease in the number of viable cells. These numbers are calculated from the mean of 4 incubations in one experiment (the experiment was repeated once with similar results).

Compound: CC[N+](C)(CC)CCOCc1ccc2sc3ccccc3c(=O)c2c1.[I-] [CCDTHT, N,N-diethyl-N-methyl-2-[(9-oxo-9H-thioxanthen-2-yl)methoxy]-ethanaminium iodide]
- reversibility: proliferation in fresh medium after treatment, HTB-157 (HTB-157 cells; 100 μM 48 hours, then 96 hours without CCDTHT): clearly resumed proliferation
- decrease in DNA synthesis, HTB-157 fibroblasts (HTB-157 cells; 100 μM, 48 hours): about 16%
- numbers of re-plated untreated and treated HTB-157 fibroblasts (HTB-157 cells; 100 μM, re-plated after treatment): practically no difference
- decrease in viability of HTB-157 fibroblasts (HTB-157 cells; 50-100 μM, 48 hours, MTT): 19-20%
- sensitivity compared with HaCaT cells, HTB-157 fibroblasts (HTB-157 cells; 50 and 100 μM, 72 hours, MTT): significantly less sensitive
- cytotoxicity at 10 days, 100 μM ([1]; HTB-157 fetal (normal) fibroblasts, 100 μM, 10 days, read-out: reduction in the number of viable cells, HTB-157): ≤ 50%
- cytotoxicity at 48 h ([1]; HTB-157 fetal lung (normal) fibroblasts, 50-100 μM, 48 hours, read-out: decrease in viability of HTB-157 fibroblasts): 20 to 22%
- reversibility: proliferation in fresh medium after treatment, 3A-SubE (3A-SubE cells): not sufficient to suppress proliferation
- Body weight, Day 14 ([2]; once daily): 25.1 ± 0.84 g
- Body weight, Day 18 ([2]; once daily): 26.9 ± 0.93 g
- Body weight, Day 21 ([2]; once daily): 28.8 ± 0.91 g
- Body weight, Day 7 ([2]; start of treatment): 22.8 ± 0.82 g
- IC50 at 72 h [3]: 119 µM

From patent publication US7943606B2, “Compositions and methods to control abnormal cell growth” (CanCure Laboratories, LLC, priority 2005, dated 2011)
